In article PMC7997032, “Organic synthesis and anti-influenza A virus activity of cyclobakuchiols A, B, C, and D” (PLoS ONE, 2021):
Values joined by “and” are separate entries in the source; they are usually repeats but may differ in a detail not shown here. Equal entries are not always repeated. Where two headings read alike, the source gives them in different places.

Experiments:
A/CA/7/09 viral NA = system: A/CA/7/09 viral NA; set-up: method as in PMID 26446794; settings: cited from earlier work
A/PR/8/34 viral NA = system: A/PR/8/34 viral NA; set-up: method as in PMID 26446794; settings: cited from earlier work
A/PR/8/34 virus [1] = assay: RT-qPCR of viral mRNAs (NP, NS1, PA, PB1, PB2, M2) in infected MDCK cells; format: cell-based, influenza A H1N1 virus
A/PR/8/34 virus [2] = format: cell-based
A/WSN/33 virus [3] = assay: Immunofluorescence staining of viral NP in influenza A virus-infected MDCK cells; settings: for percentage of influenza A NP-positive cells relative to DMSO: 24 h, Fig 4D; for NP/DAPI (%) ave: WSN
MDCK cells = assay: MTT assay (cytotoxicity against MDCK cells); format: cell-based, canine; settings: ≤50 μM, 24 or 72 h
Summary of the method: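 Compounds at 0.8–100 μM (final DMSO up to 1%) in DMEM with 1% BSA and 4 mM L-glutamine incubated with cells 24 or 72 h at 37°C, 5% CO2. Viability measured by MTT.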

A/PR/8/34 viral HA = system: A/PR/8/34 viral HA; set-up: method as in PMID 26446794; settings: cited from earlier work
[4] = system: NAD(P)H quinone oxidoreductase 1 (Nqo1); assay: RT-qPCR of Nqo1 mRNA in MDCK cells with or without A/PR/8/34 virus; format: cell-based, canine; settings: for NQO1 Canis lupus mRNA, ave / NQO1 Canis lupus mRNA, individual replicates: 12.5uM, MDCK, relative to virus - DMSO; for NQO1 Canis lupus mRNA, ave: ave of #1-3 exp; for NQO1 Canis lupus mRNA, individual replicates: replicates 1-3 of #1, #2, #3 exp
A/WSN/33 virus [5] = assay: Influenza A viral growth assay (viral titer of culture media); format: cell-based, influenza A H1N1 virus; settings: for viral titer of conditioned media compared with DMSO: A/WSN/34 as printed, 12.5 μM
[6] = system: recombinant A/PR/8/34 viral HA protein; set-up: method as in PMID 26446794; settings: cited from earlier work
A/CA/7/09 viral HA = system: A/CA/7/09 viral HA; set-up: method as in PMID 26446794; settings: cited from earlier work
[7] = system: canine interferon-β (Ifn-β); assay: RT-qPCR of Ifn-β mRNA in MDCK cells with or without A/PR/8/34 virus; format: cell-based; settings: for MDCK IFN-b mRNA, ave / MDCK IFN-b mRNA, individual replicates: 12.5uM, relative to virus - DMSO; for MDCK IFN-b mRNA, ave: ave of #1-3 exp; for MDCK IFN-b mRNA, individual replicates: replicates 1-3 of #1, #2, #3 exp
A/WSN/33 virus [8] = assay: Viability of influenza A virus-infected MDCK cells by naphthol blue-black staining; format: cell-based, influenza A H1N1 virus; settings: A/WSN/33, MOI 10, 72 h, 0.4–25 μM
Procedure: MDCK cells were seeded on a 96-well plate (1 × 10^4 cells/well). 2–5 (0.4–25 μM) were mixed with A/PR/8/34, A/CA/7/09, or A/WSN/33 viruses in 10% FBS-supplemented growth medium at a multiplicity of infection (MOI) of ten. DMSO (0.004–1%) or 1 (0.4–25 μM) were used as negative or positive controls, respectively. […] After incubation, the cells were stained with naphthol blue–black, as previously described. Viable cells in each well were stained blue, whereas dead cells remained unstained.

A/PR/8/34 virus [9] = assay: Influenza A viral growth assay (viral titer of culture media); format: cell-based, influenza A H1N1 virus; set-up: viral titer of culture media, individual replicate / viral titer of culture media, ave: unit not given here
Nrf2 = Nrf2 reporter assay (dual luciferase system) in MDCK cells; format: cell-based, canine
[10] = MDCK cells, PR8 virus, relative to DMSO (about 1), ave of #1-3 exp (9 values)
[11] = MDCK cells, PR8 virus, relative to DMSO, replicates 1-3 of #1, #2, #3 exp
[12] = 12.5 μM, 24h WB, average of 3 experiments
[13] = 12.5 μM, 24h WB, single experiment
[14] = 12.5 μM, 24 h post-infection, Fig 7C

C=C[C@@](C)(/C=C/c1ccc(O)cc1)CCC=C(C)C [(+)-(S)-bakuchiol, reference compound]
inhibition of viral NA activity (A/CA/7/09 viral NA): did not inhibit
inhibition of viral NA activity (A/PR/8/34 viral NA): did not inhibit
reduction in the level of NP mRNA compared with 4 and 5 (A/PR/8/34 virus [1]; 12.5 μM, 24 h, Fig 6A): significantly stronger
reduction in the level of PB2 mRNA compared with 5 (A/PR/8/34 virus [1]; 12.5 μM, 24 h, Fig 6E): significantly stronger
relative mRNA expression levels of viral genes (NP, NS1, PA, PB1, PB2, M2) compared with DMSO (A/PR/8/34 virus [1]; 12.5 μM, MOI 0.1, 24 h): significantly decreased
PR8 NP gene expression qPCR, ave (A/PR/8/34 virus [1]; MDCK PR8, NP mRNA, relative (DMSO about 1), average of #1-3 exp (n=9)): 0.01761
PR8 NP gene expression qPCR, individual replicate (A/PR/8/34 virus [1]; MDCK PR8, NP mRNA, relative (DMSO about 1), replicates of #1-3 exp): 0.006615 and 0.02549 and 0.02199 and 0.02377 and 0.03127 and 0.01502 and 0.01903 and 0.00944 and 0.005898
PR8 NS1 gene expression qPCR, ave (A/PR/8/34 virus [1]; MDCK PR8, NS1 mRNA, relative (DMSO about 1), average of #1-3 exp (n=9)): 0.01277
PR8 NS1 gene expression qPCR, individual replicate (A/PR/8/34 virus [1]; MDCK PR8, NS1 mRNA, relative (DMSO about 1), replicates of #1-3 exp): 0.005751 and 0.01688 and 0.01532 and 0.01756 and 0.02149 and 0.008029 and 0.01283 and 0.01159 and 0.005477
PR8 PA gene expression qPCR, ave (A/PR/8/34 virus [1]; MDCK PR8, PA mRNA, relative (DMSO about 1), average of #1-3 exp (n=9)): 0.01401
PR8 PA gene expression qPCR, individual replicate (A/PR/8/34 virus [1]; MDCK PR8, PA mRNA, relative (DMSO about 1), replicates of #1-3 exp): 0.007199 and 0.01835 and 0.01386 and 0.0158 and 0.019 and 0.01338 and 0.01452 and 0.01667 and 0.00733
PR8 M2 gene expression qPCR, ave (A/PR/8/34 virus [1]; [10]): 0.01399
PR8 PB1 gene expression qPCR, ave (A/PR/8/34 virus [1]; [10]): 0.009536
PR8 PB2 gene expression qPCR, ave (A/PR/8/34 virus [1]; [10]): 0.01448
PR8 M2 gene expression qPCR, individual replicates (A/PR/8/34 virus [1]; [11]): 0.006766 and 0.02094 and 0.01741 and 0.01624 and 0.02057 and 0.01274 and 0.01424 and 0.01232 and 0.004647
PR8 PB1 gene expression qPCR, individual replicates (A/PR/8/34 virus [1]; [11]): 0.005288 and 0.01134 and 0.00694 and 0.008199 and 0.02025 and 0.01044 and 0.005541 and 0.01144 and 0.006386
PR8 PB2 gene expression qPCR, individual replicates (A/PR/8/34 virus [1]; [11]): 0.00629 and 0.02178 and 0.01747 and 0.01955 and 0.0211 and 0.01165 and 0.01377 and 0.01287 and 0.005833
expression of NP and NS1 proteins compared with DMSO (western blot) (A/PR/8/34 virus [2]; 12.5 μM, 8, 12 or 24 h post-infection): reduced
NP/b-actin ave (A/PR/8/34 virus [2]; [12]): 0.4577
NS1/b-actin ave (A/PR/8/34 virus [2]; [12]): 0.476
NP mean (western blot signal intensity, ImageJ) (A/PR/8/34 virus [2]; [13]): 41.483 and 67.678 and 82.727
NS1/b-actin (A/PR/8/34 virus [2]; [13]): 0.411 and 0.4433 and 0.5737
NS1 mean (western blot signal intensity, ImageJ) (A/PR/8/34 virus [2]; [13]): 69.425 and 77.937 and 55.734
expression level of NP protein compared with the 4 or 5 treatment groups (A/PR/8/34 virus [2]; [14]): significantly reduced
expression levels of NP or NS1 proteins from signal intensities compared with DMSO (A/PR/8/34 virus [2]; [14]): significantly reduced
percentage of influenza A NP-positive cells relative to DMSO (A/WSN/33 virus [3]; A/WSN/33, 12.5 μM): significantly reduced
percentage of influenza A NP-positive cells relative to DMSO (A/WSN/33 virus [3]; A/WSN/33, 3.1–6.3 μM): did not significantly reduce
NP/DAPI (%) ave (A/WSN/33 virus [3]; 3.13uM, ave of 9 values (3 exp)): 23.4639%
NP/DAPI (%) ave (A/WSN/33 virus [3]; 6.25uM, ave of 9 values (3 exp)): 22.221%
NP/DAPI (%) ave (A/WSN/33 virus [3]; 12.5uM, ave of 9 values (3 exp)): 22.092%
NP/DAPI (%) ave (A/WSN/33 virus [3]; 25uM, ave of 9 values (3 exp)): 25.1439%
NP/DAPI (%) ave (A/WSN/33 virus [3]; ave summary, 3.13%): 23.4639%
NP/DAPI (%) ave (A/WSN/33 virus [3]; ave summary, 6.25%): 22.221%
NP/DAPI (%) ave (A/WSN/33 virus [3]; ave summary, 12.50%): 22.092%
NP/DAPI (%) ave (A/WSN/33 virus [3]; ave summary, 25%): 25.1439%
cell viability / toxicity (MTT) (MDCK cells): not affected
inhibition of hemagglutination of chicken red blood cells (A/PR/8/34 viral HA): did not inhibit
relative mRNA level of Nqo1 compared with DMSO [4]: significantly upregulated
NQO1 Canis lupus mRNA, ave ([4]; virus + (PR8)): 2.213
NQO1 Canis lupus mRNA, individual replicates ([4]; virus + (PR8)): 2.486 and 2.782 and 2.118 and 2.457 and 1.645 and 1.778 and 1.772 and 2.442 and 2.434
NQO1 Canis lupus mRNA, ave ([4]; virus -): 1.91
NQO1 Canis lupus mRNA, individual replicates ([4]; virus -): 1.8342 and 2.199 and 2.0999 and 1.939 and 1.851 and 1.6659 and 2.003 and 1.832 and 1.767
relative mRNA level of Nqo1 compared with DMSO ([4]; without A/PR/8/34 virus, 12.5 μM, 24 h): significantly upregulated
viral titer of culture media, ave (A/WSN/33 virus [5]; A/WSN/33 (WSN), 12.5uM, 12h, average of #1-3 exp (n=9)): 15811.1
viral titer of conditioned media compared with DMSO (A/WSN/33 virus [5]; 48–72 h): not reduced
viral titer of conditioned media compared with DMSO (A/WSN/33 virus [5]; 24 h): significantly reduced
inhibition of trypsin digestion of recombinant HA protein [6]: did not inhibit
inhibition of hemagglutination of chicken red blood cells (A/CA/7/09 viral HA): did not inhibit
virus-induced upregulation of Ifn-β mRNA [7]: significantly reduced
MDCK IFN-b mRNA, ave ([7]; virus +): 3.367
MDCK IFN-b mRNA, individual replicates ([7]; virus +): 2.6311 and 8.162 and 4.8 and 5.795 and 3.073 and 1.349 and 1.382 and 0.9842 and 2.128
MDCK IFN-b mRNA, ave ([7]; virus -): 1.794
MDCK IFN-b mRNA, individual replicates ([7]; virus -): 0.2606 and 0.6947 and 2.008 and 8.353 and 0.6874 and 0.5651 and 1.697 and 0.7342 and 1.151
naphthol blue-black staining of infected cells (A/WSN/33 virus [8]): not stained
viral titer of culture media, ave (A/PR/8/34 virus [9]; A/PR/8/34 (PR8), 12.5uM, 12h, average of #1-3 exp (n=9)): 23333.3
viral titer of conditioned media compared with DMSO (A/PR/8/34 virus [9]; A/PR/8/34, 12.5 μM, 12–72 h): significantly reduced
Nrf2 activation (reporter assay) in contrast to DMSO (Nrf2; 12.5 μM, 24 h, MDCK cells): induce Nrf2 activation
pNQO1-ARE-Luc NRF2 reporter assay, ave (Nrf2; 12.5uM, relative to DMSO trans+, ave of #1-3 exp): 1.302
pNQO1-ARE-Luc NRF2 reporter assay, individual replicates (Nrf2; 12.5uM, relative to DMSO trans+, two values each of #1, #2, #3 exp): 1.091 and 1.274 and 1.491 and 1.4074 and 1.544 and 1.002
